From ChEMBL document CHEMBL3414566, “Synthesis, docking and ADMET studies of novel chalcone triazoles for anti-cancer and anti-diabetic activity” (Eur J Med Chem, 2015)

Experiments:
[1] = Inhibition of rat intestinal alpha-glucosidase using nitrophenyl-alpha-D-glucopyranoside by spectrophotometrically
[2] = test system: DU-145; experiment: Anticancer activity against human DU145 cells by MTT assay; assay type: functional, cell-based
[3] = Anticancer activity against human IMR32 cells by MTT assay; assay type: functional, cell-based, IMR-32
[4] = test system: A549; experiment: Anticancer activity against human A549 cells by MTT assay; assay type: functional, cell-based
[5] = test system: HepG2; experiment: Anticancer activity against human HepG2 cells by MTT assay; assay type: functional, cell-based
[6] = test system: MCF7; experiment: Anticancer activity against human MCF7 cells by MTT assay; assay type: functional, cell-based
[7] = Homo sapiens, DU-145, read-out: IC50
[8] = Homo sapiens, IMR-32, read-out: IC50
[9] = Homo sapiens, A549, read-out: IC50
[10] = Homo sapiens, HepG2, read-out: IC50
[11] = Homo sapiens, MCF7, read-out: IC50

Row | Structure (SMILES) | IC50 [1] | IC50 [2, 7] | IC50 [4, 9] | IC50 [5, 10] | IC50 ([1]; read-out: IC50) | IC50 ([6]; mcf7) | IC50 ([2]; du-145) | IC50 ([5]; hepg2) | IC50 ([4]; a549) | IC50 [6, 11] | IC50 [3, 8] | IC50 ([3]; imr-32)
1 | COc1cccc2c1C(=O)c1c(O)c3c(c(O)c1C2=O)C[C@@](O)(C(=O)CO)C[C@@H]3O[C@H]1C[C@H](N)[C@H](O)[C@H](C)O1 [DOXORUBICIN] | Not Active | 17.7 µM | 69.3 µM | 1.05 µM | – | – | – | – | – | – | 44.4 µM | –
2 | CCCCCn1cc(COc2ccc(/C=C/C(=O)c3cc4c(cc3O)OC(C)(C)CC4)cc2)nn1 | – | – | 91.3 µM | 95.8 µM | 74.9 µM | Not Active | Not Active | – | – | – | – | Not Active
3 | CC1(C)CCc2cc(C(=O)/C=C/c3ccc(OCc4cn(-c5ccc(Br)cc5)nn4)cc3)c(O)cc2O1 | Not Active | – | 80 µM | – | – | Not Active | Not Active | Not Active | – | – | 69.4 µM | –
4 | CCCCCCCCn1cc(COc2ccc(/C=C/C(=O)c3ccc4c(c3O)CCC(C)(C)O4)cc2)nn1 | Not Active | – | – | 74.1 µM | – | Not Active | Not Active | – | Not Active | – | – | Not Active
5 | Cc1c(-n2cc(COc3ccc(/C=C/C(=O)c4cc5c(cc4O)OC(C)(C)CC5)cc3)nn2)cccc1[N+](=O)[O-] | Not Active | – | 65.9 µM | 109 µM | – | – | Not Active | – | – | 176 µM | – | Not Active
6 | COc1ccc(-n2cc(COc3ccc(/C=C/C(=O)c4cc5c(cc4O)OC(C)(C)CC5)cc3)nn2)c([N+](=O)[O-])c1 | Not Active | – | 99.5 µM | – | – | Not Active | Not Active | Not Active | – | – | – | Not Active
7 | CCCCCn1cc(COc2ccc(/C=C/C(=O)c3ccc4c(c3O)CCC(C)(C)O4)cc2)nn1 | – | – | 48.6 µM | 9.82 µM | 102 µM | – | Not Active | – | – | 191 µM | – | Not Active
8 | Cc1ccc(-n2cc(COc3ccc(/C=C/C(=O)c4cc5c(cc4O)OC(C)(C)CC5)cc3)nn2)cc1Br | Not Active | – | 125 µM | 117 µM | – | Not Active | Not Active | – | – | – | – | Not Active
9 | CCCCCCCCn1cc(COc2ccc(/C=C/C(=O)c3cc4c(cc3O)OC(C)(C)CC4)cc2)nn1 | Not Active | – | 50.8 µM | 127 µM | – | Not Active | Not Active | – | – | – | 7.09 µM | –
10 | CC(=O)c1ccc(-n2cc(COc3ccc(/C=C/C(=O)c4cc5c(cc4O)OC(C)(C)CC5)cc3)nn2)cc1 | Not Active | – | 66.3 µM | – | – | – | Not Active | Not Active | – | 182 µM | – | Not Active
11 | CC1(C)CCc2cc(C(=O)/C=C/c3ccc(OCc4cn(-c5ccc(Cl)cc5)nn4)cc3)c(O)cc2O1 | Not Active | – | 75.5 µM | – | – | Not Active | Not Active | Not Active | – | – | 92.1 µM | –
12 | Cc1ccc(-n2cc(COc3ccc(/C=C/C(=O)c4ccc5c(c4O)CCC(C)(C)O5)cc3)nn2)cc1Br | Not Active | – | – | 110 µM | – | Not Active | Not Active | – | Not Active | – | – | Not Active
13 | CCc1ccccc1-n1cc(COc2ccc(/C=C/C(=O)c3cc4c(cc3O)OC(C)(C)CC4)cc2)nn1 | Not Active | – | 137 µM | 115 µM | – | Not Active | Not Active | – | – | – | – | Not Active
14 | C[C@H]1O[C@H](O[C@H]2[C@H](O)[C@@H](O)[C@@H](O[C@H]3[C@H](O)[C@@H](O)C(O)O[C@@H]3CO)O[C@@H]2CO)[C@H](O)[C@@H](O)[C@@H]1N[C@H]1C=C(CO)[C@@H](O)[C@H](O)[C@H]1O (stereo partly specified) [ACARBOSE] | – | – | – | – | 23.9 µM | Not Active | Not Active | Not Active | Not Active | – | – | Not Active

Now from value to compound, other results behind:

Row | IC50 [1] | IC50 [2, 7] | IC50 [4, 9] | IC50 [5, 10] | IC50 ([1]; read-out: IC50) | IC50 ([6]; mcf7) | IC50 ([2]; du-145) | IC50 ([5]; hepg2) | IC50 ([4]; a549) | IC50 [6, 11] | Structure (SMILES) | IC50 [3, 8] | IC50 ([3]; imr-32)
15 | – | – | 112 µM | 67.8 µM | 67.8 µM | Not Active | Not Active | – | – | – | CCc1ccccc1-n1cc(COc2ccc(/C=C/C(=O)c3ccc4c(c3O)CCC(C)(C)O4)cc2)nn1 | – | Not Active
16 | Not Active | – | 35.8 µM | 109 µM | – | Not Active | Not Active | – | – | – | CC1(C)CCc2cc(C(=O)/C=C/c3ccc(OCc4cn(Cc5ccc([N+](=O)[O-])cc5)nn4)cc3)c(O)cc2O1 | 108 µM | –
17 | Not Active | – | – | 120 µM | – | – | Not Active | – | Not Active | 73.1 µM | COc1ccc(-n2cc(COc3ccc(/C=C/C(=O)c4ccc5c(c4O)CCC(C)(C)O5)cc3)nn2)c([N+](=O)[O-])c1 | 132 µM | –
18 | Not Active | – | 129 µM | 136 µM | – | Not Active | Not Active | – | – | – | CC1(C)CCc2c(ccc(C(=O)/C=C/c3ccc(OCc4cn(-c5ccc(Br)cc5)nn4)cc3)c2O)O1 | 117 µM | –
19 | – | – | – | 102 µM | 128 µM | Not Active | Not Active | – | Not Active | – | CC1(C)CCc2c(ccc(C(=O)/C=C/c3ccc(OCc4cn(-c5ccc(Cl)cc5)nn4)cc3)c2O)O1 | – | Not Active
20 | Not Active | – | – | 115 µM | – | – | Not Active | – | Not Active | 145 µM | Cc1c(-n2cc(COc3ccc(/C=C/C(=O)c4ccc5c(c4O)CCC(C)(C)O5)cc3)nn2)cccc1[N+](=O)[O-] | 73.5 µM | –
21 | Not Active | – | 149 µM | 91.4 µM | – | – | Not Active | – | – | 171 µM | CC(=O)c1ccc(-n2cc(COc3ccc(/C=C/C(=O)c4ccc5c(c4O)CCC(C)(C)O5)cc3)nn2)cc1 | 89.5 µM | –
22 | Not Active | 29.9 µM | 69.9 µM | 69.9 µM | – | – | – | – | – | 17.1 µM | CC1(C)CCc2c(ccc(C(=O)/C=C/c3ccc(OCc4cn(Cc5ccc([N+](=O)[O-])cc5)nn4)cc3)c2O)O1 | 17.3 µM | –
